# Key:
# [1] = Evaluation of separation efficiency: excision of the compound from the carrier with trifluoroacetic acid/dichloromethane, material consumption by HPLC; assay type: physicochemical
# Procedure: By stirring the obtained compound 7 (4-iodo-benzoic acid 2,4-bis-octadecyloxybenzyl ester) in solvents listed in Table 2 and for the times shown in Table 2, separation of the compound from the carrier was performed to obtain the reaction rate. In this case, the reaction rate was calculated by assessing the disappearance of material by HPLC.
# Regarding compound 9 (4-iodo-benzoic acid 3,4,5-tris-octadecyloxybenzyl ester) having the following formula 6, which was prepared by condensing 4-iodobenzoic acid to compound 6 (3,4,5-tris-octadecyloxybenzyl alcohol), the separation reaction rate was measured under various conditions similar to in Example 2.
# The above-obtained compound was evaluated for the separation efficiency, similar to Example 3, when it was stirred in dichloromethane containing 1% trifluoroacetic acid for 30 min. As a result, the reaction rate was 100%.
# [2] = Evaluation of solubility in organic solvents at 25° C.; assay type: physicochemical; conditions: tetrahydrofuran, organic solvent or mixture
# Procedure: The compound 2 (2,4-bisoctadecyloxyphenylmethanol) thus obtained was measured for solubility in hexane, cyclohexane, dichloromethane and tetrahydrofuran, respectively, when used as solvents at 25° C.
# 3,4,5-Tris-octadecyloxybenzylalcohol (compound 6) having the following chemical formula was measured for solubility in various solvents at 25° C. similar to as in Example 1.
# [3] = 1% trifluoroacetic acid/dichloromethane, 30 min
# [4] = 10% trifluoroacetic acid/dichloromethane, 120 min
# [5] = 50% trifluoroacetic acid/dichloromethane, 120 min
"Reaction rate (material consumption evaluated by HPLC measurement) [1, 3]","Reaction rate (material consumption evaluated by HPLC measurement) [1, 4]","Reaction rate (material consumption evaluated by HPLC measurement) [1, 5]",solubility [2],SMILES
100%,,,,"CCCCCCCCCCCCCCCCCCCCCCOc1ccc(COC(=O)c2ccc(I)cc2)c(OCCCCCCCCCCCCCCCCCCCCCC)c1 [4-iodo-benzoic acid 2,4-bis-docosanoxybenzyl ester]"
1< %,12%,100%,,"CCCCCCCCCCCCCCCCCCOc1cc(COC(=O)c2ccc(I)cc2)cc(OCCCCCCCCCCCCCCCCCC)c1OCCCCCCCCCCCCCCCCCC [Compound 9, 4-iodo-benzoic acid 3,4,5-tris-octadecyloxybenzyl ester, reference compound]"
,,,236 mg/mL,"CCCCCCCCCCCCCCCCCCCCCCOc1ccc(CO)c(OCCCCCCCCCCCCCCCCCCCCCC)c1 [2,4-bis-docosanoxyphenyl methanol]"
100%,100%,100%,,"CCCCCCCCCCCCCCCCCCOc1ccc(COC(=O)c2ccc(I)cc2)c(OCCCCCCCCCCCCCCCCCC)c1 [Compound 7, 4-iodo-benzoic acid 2,4-bis-octadecyloxybenzyl ester]"
